SMILES strings stand for the structures. Like-named read-outs stand apart in the source and are kept apart here.

Test [1] has as its system H3K27me3 in OCILY19 cells. As to the kind of experiment: H3K27me3 AlphaLISA assay in OCILY19 cells. Type of test: cell-based. The settings on record: Homo sapiens, OCI-LY19, 144 h, 6 days with compound, read-out: OCILY-19 IC50. How it is done:
(§1) 5,000 cells were plated into each well of 96-well Corning CellBing cell culture plates and incubated overnight at 37° C. in a humidified CO2 incubator. […] The cell culture plates were then incubated for 6 more days. H3K27me3 AlphaLISA assay was performed on the cell culture samples by using AlphaLISAR® H3K27me3 Cellular Detection Kit (PerkinElmer) and 96-well white half-area plates (PerkinElmer).

Another test concerns H3K27me3 in G401 cells. As to the kind of experiment: H3K27me3 AlphaLISA assay in G401 cells. Type of test: cell-based. The conditions noted are these: Homo sapiens, G-401, 144 h, 6 days with compound. On the procedure:
as §1, with “G401 cells (ATCC catalog # CRL-1441) were maintained in McCoy's 5a medium (ATCC) supplemented with 10% heat-inactivated FBS (HyClone) at 37° C. in a humidified CO2 incubator. OCILY19 cells (DSMZ catalog #ACC 528) were maintained in IMDM (Invitrogen) supplemented with 10% human serum (Sigma) at 37° C. in a humidified CO2 incubator. 5,000” for “5,000”

The subject of a further test is Pfeiffer cells. As to the kind of experiment: CTG cell viability assay (CellTiter-Glo). The test is classed as cell-based. The conditions noted are these: Homo sapiens, 240 h. How it is done:
1,000 cells were plated into each well of 96-well Corning CellBing cell culture plates and incubated overnight at 37° C. in a humidified CO2 incubator. […] The cell culture plates were then incubated for 10 more days. CTG cell viability assay was performed on the cell culture samples by using CellTiter-Glo® Luminescent Cell Viability Assay Kit (Promega).
Background: Cellular ATP, detected with luciferase, serves as a proxy for viable cell number.

The target in another test is EED (Homo sapiens, UniProt O75530). As to the kind of experiment: EED TR-FRET Binding Assay (modified LanthaScreen competition assay). The method in brief:
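Competition binding in a modified LanthaScreen format, in 20 mM Tris-HCl pH 7.5, 200 mM NaCl, 0.01% Tween-20, 10 uM DTT and 0.05% BSA. Reactions ran 1 hour at 25° C before TR-FRET detection.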
In general terms: TR-FRET usually uses a lanthanide donor and a delayed reading to cut background.

Where [2] appears, read: Pfeiffer, read-out: Cell Proliferation IC50 (uM).
Where [3] appears, read: Pfeiffer cells, 10 days with compound, CellTiter-Glo, read-out: Cell Proliferation IC50.

Chain of EED (O75530 whole entry): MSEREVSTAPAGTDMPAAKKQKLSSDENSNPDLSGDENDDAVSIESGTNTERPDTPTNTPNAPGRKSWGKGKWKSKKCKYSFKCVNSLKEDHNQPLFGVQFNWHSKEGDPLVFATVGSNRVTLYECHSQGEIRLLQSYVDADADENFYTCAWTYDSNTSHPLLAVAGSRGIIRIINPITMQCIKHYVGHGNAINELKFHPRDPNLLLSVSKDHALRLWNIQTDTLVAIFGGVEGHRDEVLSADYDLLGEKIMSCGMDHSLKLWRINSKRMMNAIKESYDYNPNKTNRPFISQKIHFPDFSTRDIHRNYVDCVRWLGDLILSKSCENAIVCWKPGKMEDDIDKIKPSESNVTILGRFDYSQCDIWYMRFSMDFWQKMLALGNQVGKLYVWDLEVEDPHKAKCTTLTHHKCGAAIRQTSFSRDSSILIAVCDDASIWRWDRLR

As for `CN(C)[C@H]1CN(C2CCc3cccc(F)c32)C[C@@H]1c1ccc(N2CCN(S(C)(=O)=O)CC2)cc1` (mixture of isomers) [Example 1, (3R,4S)-1-(7-fluoro-2,3-dihydro-1H-inden-1-yl)-4-{4-[4-(methanesulfonyl)piperazin-1-yl]phenyl}-N,N-dimethylpyrrolidin-3-amine], the IC50 in test [1] stood at 62.1 nM; in the test with H3K27me3 in G401 cells, 55.5 nM; with Pfeiffer cells (setting [2]), 0.0725 µM.
As to `CN(C)[C@H]1CN(C2CCc3cccc(F)c32)C[C@@H]1c1cn(C)c2cc(C(=O)N3CC[C@@H](O)C3)ccc12` (mixture of isomers) [Example 112, rac-{3-[(3S,4R)-4-(dimethylamino)-1-(7-fluoro-2,3-dihydro-1H-inden-1-yl)pyrrolidin-3-yl]-1-methyl-1H-indol-6-yl}[(3R)-3-hydroxypyrrolidin-1-yl]methanone], the IC50 amounted to 1.2 nM on EED, 446 nM in test [1], 70.2 nM in the test on H3K27me3 in G401 cells and 0.133 µM in the test on Pfeiffer cells (setting [3]).
For `CN(C)[C@H]1CN(C2CCc3cccc(F)c32)C[C@@H]1c1cn(C)c2c(C(=O)N3C[C@H](O)[C@@H](O)C3)cccc12` (mixture of isomers) [Example 113, rac-[(3S,4S)-3,4-dihydroxypyrrolidin-1-yl]{3-[(3S,4R)-4-(dimethylamino)-1-(7-fluoro-2,3-dihydro-1H-inden-1-yl)pyrrolidin-3-yl]-1-methyl-1H-indol-7-yl}methanone] the same measures were 0.679 nM, 3280 nM, 799 nM and 0.399 µM.
As for `CN(C)[C@H]1CN(C2CCc3cccc(F)c32)C[C@@H]1c1ccc(N2CCN(S(C)(=O)=O)CC2)cc1` (mixture of isomers) [Example 2, rac-(3R,4S)-1-(7-fluoro-2,3-dihydro-1H-inden-1-yl)-4-{4-[4-(methanesulfonyl)piperazin-1-yl]phenyl}-N,N-dimethylpyrrolidin-3-amine], the results for the IC50 (in test [1]; in the test on H3K27me3 in G401 cells; with Pfeiffer cells (setting [2])) were 140 nM, 99.2 nM and 0.126 µM, respectively.
For `CN(C)[C@@H]1CN(C2CCc3cccc(F)c32)C[C@H]1c1ccc(Br)cc1` (mixture of isomers) [Example 6, rac-(3S,4R)-4-(4-bromophenyl)-1-(7-fluoro-2,3-dihydro-1H-inden-1-yl)-N,N-dimethylpyrrolidin-3-amine], the IC50 on EED was found to be 4.77 nM; in test [1] it was 1760 nM; in the test on H3K27me3 in G401 cells, 244 nM; in the test on Pfeiffer cells (setting [3]), 3.3 µM.
Take `CN(C)[C@@H]1CN(C2CCc3cccc(F)c32)C[C@H]1c1ccc(Cl)cc1` (mixture of isomers) [Example 7, rac-(3S,4R)-4-(4-chlorophenyl)-1-(7-fluoro-2,3-dihydro-1H-inden-1-yl)-N,N-dimethylpyrrolidin-3-amine]: the IC50 is 6.08 nM on EED, 3120 nM in test [1], 3190 nM with H3K27me3 in G401 cells and 2.34 µM in the test on Pfeiffer cells (setting [3]).
As for `CN(C)[C@@H]1CN([C@@H]2CCc3cccc(F)c32)C[C@H]1c1ccc(C#N)cc1` (racemic) [Example 19, rac-4-{(3R,4S)-4-(dimethylamino)-1-[(1R)-7-fluoro-2,3-dihydro-1H-inden-1-yl]pyrrolidin-3-yl}benzonitrile], the IC50 on EED came to 12.5 nM; in test [1], 597 nM; with H3K27me3 in G401 cells, 725 nM; in the test on Pfeiffer cells (setting [3]), 0.654 µM.
On the same counts, the results for `COC(=O)c1ccc([C@@H]2CN(C3CCc4cccc(F)c43)C[C@H]2N(C)C)cc1` (mixture of isomers) [Example 22, rac-methyl 4-[(3R,4S)-4-(dimethylamino)-1-(7-fluoro-2,3-dihydro-1H-inden-1-yl)pyrrolidin-3-yl]benzoate] are 2.85 nM, 944 nM, 449 nM and 0.422 µM.
Regarding `CCS(=O)(=O)N1CCN(C(=O)c2cccc3c([C@H]4CN(C5CCc6cccc(F)c65)C[C@@H]4N(C)C)cn(C)c23)CC1` (mixture of isomers) [Example 130, rac-{3-[(3S,4R)-4-(dimethylamino)-1-(7-fluoro-2,3-dihydro-1H-inden-1-yl)pyrrolidin-3-yl]-1-methyl-1H-indol-7-yl}[4-(ethanesulfonyl)piperazin-1-yl]methanone], the results for the IC50 (at EED; in test [1]; with Pfeiffer cells (setting [3])) were 1.05 nM, 306 nM and 0.311 µM, respectively.
For `CN(C)[C@@H]1CN(C2CCc3cccc(F)c32)C[C@H]1c1ccc(N2CCN(C(=O)CNS(C)(=O)=O)CC2)nc1` (mixture of isomers) [Example 155, rac-N-[2-(4-{5-[(3R,4S)-4-(dimethylamino)-1-(7-fluoro-2,3-dihydro-1H-inden-1-yl)pyrrolidin-3-yl]pyridin-2-yl}piperazin-1-yl)-2-oxoethyl]methanesulfonamide] the same measures were 1.75 nM, 3220 nM and 0.395 µM.
For `CN(C)[C@H]1CN(C2CCc3cccc(F)c32)C[C@@H]1C1CCN(c2cnc(C(N)=O)cn2)CC1` (mixture of isomers) [Example 163, rac-5-{4-[(3S,4R)-4-(dimethylamino)-1-(7-fluoro-2,3-dihydro-1H-inden-1-yl)pyrrolidin-3-yl]piperidin-1-yl}pyrazine-2-carboxamide] the same measures were 0.638 nM, 583 nM and 0.271 µM.
As to `CN(C)[C@H]1CN([C@H]2CCc3cccc(F)c32)C[C@@H]1c1ccc(S(C)(=O)=O)cc1` [Example 11, (3R,4S)-1-[(1S)-7-fluoro-2,3-dihydro-1H-inden-1-yl]-4-[4-(methanesulfonyl)phenyl]-N,N-dimethylpyrrolidin-3-amine], the IC50 on EED amounted to 23.1 nM; in test [1] it was 171 nM; with Pfeiffer cells (setting [3]), 0.301 µM.
For the compound `CC(=O)N1CCN(c2ccc([C@H]3CN(C4CCc5cccc(F)c54)C[C@@H]3N(C)C)cc2)CC1` (stereo partly drawn) [Example 43, 1-(4-{4-[(3S,4R)-4-(dimethylamino)-1-(7-fluoro-2,3-dihydro-1H-inden-1-yl)pyrrolidin-3-yl]phenyl}piperazin-1-yl)ethan-1-one], the IC50 stood at 0.297 nM at EED, 50.4 nM in test [1] and 32.6 nM with H3K27me3 in G401 cells.
On to `CN(C)[C@H]1CN([C@H]2CCc3cccc(F)c32)C[C@@H]1c1cn(C)c2ccccc12` [Example 77, (3R,4S)-1-[(1S)-7-fluoro-2,3-dihydro-1H-inden-1-yl]-N,N-dimethyl-4-(1-methyl-1H-indol-3-yl)pyrrolidin-3-amine], for which the IC50 was 1.03 nM at EED (read-out: TR-FRET Binding), 655 nM in test [1] and 1.07 µM with Pfeiffer cells (setting [2]).
Turning to `CN(C)[C@H]1CN(C2CCc3ccccc32)C[C@@H]1c1cn(C)c2ccccc12` (stereo partly drawn) [Example 88, (3R,4S)-1-(2,3-dihydro-1H-inden-1-yl)-N,N-dimethyl-4-(1-methyl-1H-indol-3-yl)pyrrolidin-3-amine], the IC50 amounted to 26.2 nM at EED, 2440 nM in test [1] and 3.55 µM in the test with Pfeiffer cells (setting [2]).
Turning to `CN(C)[C@H]1CN(C2CCc3cccc(Cl)c32)C[C@@H]1c1cn(C)c2ccccc12` (stereo partly drawn) [Example 89, (3R,4S)-1-(7-chloro-2,3-dihydro-1H-inden-1-yl)-N,N-dimethyl-4-(1-methyl-1H-indol-3-yl)pyrrolidin-3-amine], the figures for the IC50 (at EED; in test [1]; in the test with Pfeiffer cells (setting [3])) were 31 nM, 4350 nM and 6.37 µM, respectively.
